# Results reported in US8580268B2, “CpG oligonucleotide analogs containing hydrophobic T analogs with enhanced immunostimulatory activity” (Coley Pharmaceutical GmbH, priority 2006, dated 2013).
# Entries after “also recorded” stand apart in the source; their conditions may differ. Strand notation (5' to 3'): a small letter for the sugar, then the base; units joined by * are phosphorothioate-linked, units joined directly phosphodiester-linked; [ ] holds rarer units or linkages, { } end groups; capitals alone tell only the bases. [5IU] = 5-iodo-2'-deoxyuridine; [5mC] = 5-methylcytosine; d = 2'-deoxy (DNA); m = 2'-O-methyl
# Molecular target: T1, human TLR9 (Homo sapiens, UniProt Q9NR96)
# T1 construct: expressed in transfected cells
# T1 sequence (Q9NR96 26-1032): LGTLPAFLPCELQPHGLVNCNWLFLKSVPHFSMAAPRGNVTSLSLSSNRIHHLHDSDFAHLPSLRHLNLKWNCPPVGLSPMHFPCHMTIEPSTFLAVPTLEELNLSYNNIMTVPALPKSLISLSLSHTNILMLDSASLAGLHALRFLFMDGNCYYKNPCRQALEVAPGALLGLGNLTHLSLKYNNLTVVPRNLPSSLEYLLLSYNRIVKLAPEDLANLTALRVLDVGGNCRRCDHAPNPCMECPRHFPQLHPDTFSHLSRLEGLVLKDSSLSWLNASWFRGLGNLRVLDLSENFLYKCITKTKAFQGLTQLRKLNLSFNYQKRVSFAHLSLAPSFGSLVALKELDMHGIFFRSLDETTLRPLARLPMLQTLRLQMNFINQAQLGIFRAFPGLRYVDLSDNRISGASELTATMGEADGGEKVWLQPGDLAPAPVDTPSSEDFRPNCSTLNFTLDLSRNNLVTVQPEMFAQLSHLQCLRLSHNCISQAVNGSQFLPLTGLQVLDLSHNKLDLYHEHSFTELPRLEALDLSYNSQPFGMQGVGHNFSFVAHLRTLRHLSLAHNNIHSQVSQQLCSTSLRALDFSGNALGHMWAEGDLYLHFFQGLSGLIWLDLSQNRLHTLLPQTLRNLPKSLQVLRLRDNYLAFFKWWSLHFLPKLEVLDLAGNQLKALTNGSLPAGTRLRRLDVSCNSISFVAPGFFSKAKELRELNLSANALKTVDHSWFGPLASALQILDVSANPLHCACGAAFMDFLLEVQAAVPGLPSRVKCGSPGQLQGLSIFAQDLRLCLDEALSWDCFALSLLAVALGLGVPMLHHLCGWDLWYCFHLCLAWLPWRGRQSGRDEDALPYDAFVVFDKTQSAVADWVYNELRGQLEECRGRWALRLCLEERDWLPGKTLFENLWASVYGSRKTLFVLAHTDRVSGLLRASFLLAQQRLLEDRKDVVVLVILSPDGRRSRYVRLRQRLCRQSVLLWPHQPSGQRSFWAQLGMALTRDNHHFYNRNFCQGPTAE
# Assay: TLR9 luciferase assay (NF-κB reporter) in hTLR9-LUC-293 cells
# Format: cell-based
# Conditions: 16 h, stated in words relative to the comparator ODN
# Description: HEK293 cells were transfected by electroporation with vectors expressing the respective human TLR and a 6xNF-κB-luciferase reporter plasmid. Stable transfectants (3×10^4 cells/well) were incubated indicated amounts of ODN for 16 h at 37° C. in a humidified incubator. Each data point was done in triplicate. Cells were lysed and assayed for luciferase gene activity (using the BriteLite kit from Perkin-Elmer, Zaventem, Belgium). Stimulation indices were calculated in reference to reporter gene activity of medium without addition of ODN.
row,Substance,"TLR9 stimulation (NF-κB luciferase activity, relative stimulation index)"
1,"T*G*BVU*C-G*T*T*T*T*T*T*T*T*T*T*T*T*T*T*T (DNA TGNCGTTTTTTTTTTTTTTT; listed as DNA, chemistry not fully specified) [SEQ ID NO:153, B-class with 5-(2-bromo-vinyl)-uridine (BVU)]",more active in the assay than the parent sequence
2,"T*G*CU*C-G*T*T*T*T*T*T*T*T*T*T*T*T*T*T*T (DNA TGNCGTTTTTTTTTTTTTTT; CU modification, chemistry not fully specified) [SEQ ID NO:41]",greater stimulation of TLR9 activity over control
3,"T*G*EU*C-G*EU*T*T*T*T*T*T*T*T*T*T*T*T*T*T (DNA TGNCGNTTTTTTTTTTTTTT; EU modifications, chemistry not fully specified) [SEQ ID NO:30]",significant increase in TLR9 activation
4,"T*G*EU*C-G*T*T*T*T*T*T*T*T*T*T*T*T*T*T*T (DNA TGNCGTTTTTTTTTTTTTTT; EU modification, chemistry not fully specified) [SEQ ID NO:42]",greater stimulation of TLR9 activity over control; also recorded: significant increase in TLR9 activation
5,"T*G*JU*C-E*T*T*T*T*T*T*T*T*T*T*T*T*T*T*T (DNA TGNCNTTTTTTTTTTTTTTT; JU, 7-deaza-dG, chemistry not fully specified) [SEQ ID NO:138, B-class with 7-deaza-dG (E)]",more active in the assay than the parent ODN
6,"T*G*JU*C-I*T*T*T*T*T*T*T*T*T*T*T*T*T*T*T (DNA TGUCNTTTTTTTTTTTTTTT; DNA at 3, [5IU] at 3, linkages s3 o1 s15 (s phosphorothioate, o phosphodiester), other sugars and the base at N not given here; position 5 is inosine) [SEQ ID NO:139, B-class with inosine (I)]",more active in the assay than the parent ODN
7,"T*G*JU*C-mG*T*T*T*T*T*T*T*T*T*T*T*T*T*T*T (DNA dT*dG*d[5IU]*dCmG*dT*dT*dT*dT*dT*dT*dT*dT*dT*dT*dT*dT*dT*dT*dT) [SEQ ID NO:112, 2′-O-methyl-modified B-class]",slightly more active
8,"T*G*JU*Z-G*T*T*T*T*T*T*T*T*T*T*T*T*T*T*T (DNA dT*dG*d[5IU]*d[5mC]dG*dT*dT*dT*dT*dT*dT*dT*dT*dT*dT*dT*dT*dT*dT*dT) [SEQ ID NO:140, B-class with 5-methyl-dC (Z)]",more active in the assay than the parent ODN
9,"T*G*PU*C-G*T*T*T*T*T*T*T*T*T*T*T*T*T*T*T (DNA TGNCGTTTTTTTTTTTTTTT; 5-propynyl-dU, chemistry not fully specified) [SEQ ID NO:116, B-class with 5-proynyl-dU (PU)]",activity comparable to that of the parent sequence; also recorded: slightly improved over the parent sequence
10,"T*G*T*C-G*BVU*T*T*T*T*T*T*T*T*T*T*T*T*T*T (DNA TGTCGNTTTTTTTTTTTTTT; listed as DNA, chemistry not fully specified) [SEQ ID NO:154, B-class with 5-(2-bromo-vinyl)-uridine (BVU)]",more active in the assay than the parent sequence
11,"T*G*T*C-G*PU*T*T*T*T*T*T*T*T*T*T*T*T*T*T (DNA TGTCGNTTTTTTTTTTTTTT; 5-propynyl-dU, chemistry not fully specified) [SEQ ID NO:117, B-class with 5-proynyl-dU (PU)]",activity comparable to that of the parent sequence
12,T*G*U*C-G*T*T*T*T*T*T*T*T*T*T*T*T*T*T*T (DNA dT*dG*dU*dCdG*dT*dT*dT*dT*dT*dT*dT*dT*dT*dT*dT*dT*dT*dT*dT) [SEQ ID NO:16],dramatically decreased activity
